Laboratory results reported in ChEMBL document CHEMBL4507268 (2021).

Legend:
[1] = target: Hormonally up-regulated neu tumor-associated kinase (Homo sapiens) (UniProt P57058); conditions: Compound concentration 1000.0 nM
[2] = target: Mitogen-activated protein kinase 11 (Homo sapiens) (UniProt Q15759); conditions: Compound concentration 1000.0 nM
[3] = target: Megakaryocyte-associated tyrosine-protein kinase (Homo sapiens) (UniProt P42679); conditions: Compound concentration 1000.0 nM
[4] = target: MAP kinase-interacting serine/threonine-protein kinase 2 (Homo sapiens) (UniProt Q9HBH9); conditions: Compound concentration 1000.0 nM
MAP kinase-interacting serine/threonine-protein kinase 2 (Homo sapiens), sequence (Q9HBH9 whole entry, looked up): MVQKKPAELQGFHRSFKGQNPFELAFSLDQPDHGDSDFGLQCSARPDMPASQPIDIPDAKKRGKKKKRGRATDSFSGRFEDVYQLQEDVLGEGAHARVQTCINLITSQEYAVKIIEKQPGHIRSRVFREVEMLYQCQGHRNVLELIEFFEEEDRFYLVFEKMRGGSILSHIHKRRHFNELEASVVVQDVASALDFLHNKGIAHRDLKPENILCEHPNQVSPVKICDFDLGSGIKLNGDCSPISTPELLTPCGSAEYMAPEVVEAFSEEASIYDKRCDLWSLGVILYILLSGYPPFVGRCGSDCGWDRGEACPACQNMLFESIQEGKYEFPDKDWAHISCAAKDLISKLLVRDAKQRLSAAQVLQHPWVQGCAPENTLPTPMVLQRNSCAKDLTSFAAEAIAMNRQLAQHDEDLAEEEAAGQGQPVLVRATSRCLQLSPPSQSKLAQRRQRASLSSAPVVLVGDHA

[5] = system: Tyrosine-protein kinase ABL1 (Homo sapiens), P00519 [Q252H]; conditions: Compound concentration 1000.0 nM
[6] = target: Receptor-interacting serine/threonine-protein kinase 2 (Homo sapiens) (UniProt O43353); conditions: Compound concentration 1000.0 nM
Receptor-interacting serine/threonine-protein kinase 2 (Homo sapiens), sequence (O43353 whole entry): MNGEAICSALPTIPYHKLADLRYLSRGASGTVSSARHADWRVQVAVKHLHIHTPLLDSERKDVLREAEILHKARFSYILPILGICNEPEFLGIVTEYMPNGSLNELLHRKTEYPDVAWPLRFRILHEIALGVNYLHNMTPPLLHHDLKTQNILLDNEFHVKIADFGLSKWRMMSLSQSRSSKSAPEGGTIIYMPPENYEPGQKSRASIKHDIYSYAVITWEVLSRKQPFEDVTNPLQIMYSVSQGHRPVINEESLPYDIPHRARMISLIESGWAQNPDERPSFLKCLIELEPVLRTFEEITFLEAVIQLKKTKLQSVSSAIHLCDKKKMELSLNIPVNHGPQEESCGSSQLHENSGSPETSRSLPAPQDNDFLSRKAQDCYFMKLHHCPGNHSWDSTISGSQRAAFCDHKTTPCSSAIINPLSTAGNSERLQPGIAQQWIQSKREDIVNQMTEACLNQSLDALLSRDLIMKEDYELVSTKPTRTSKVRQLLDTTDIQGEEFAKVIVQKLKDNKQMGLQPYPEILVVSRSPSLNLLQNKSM

[7] = target: T1, Calcium/calmodulin-dependent protein kinase type IV (Homo sapiens) (UniProt Q16566); conditions: Compound concentration 1000.0 nM
T1 sequence (whole entry): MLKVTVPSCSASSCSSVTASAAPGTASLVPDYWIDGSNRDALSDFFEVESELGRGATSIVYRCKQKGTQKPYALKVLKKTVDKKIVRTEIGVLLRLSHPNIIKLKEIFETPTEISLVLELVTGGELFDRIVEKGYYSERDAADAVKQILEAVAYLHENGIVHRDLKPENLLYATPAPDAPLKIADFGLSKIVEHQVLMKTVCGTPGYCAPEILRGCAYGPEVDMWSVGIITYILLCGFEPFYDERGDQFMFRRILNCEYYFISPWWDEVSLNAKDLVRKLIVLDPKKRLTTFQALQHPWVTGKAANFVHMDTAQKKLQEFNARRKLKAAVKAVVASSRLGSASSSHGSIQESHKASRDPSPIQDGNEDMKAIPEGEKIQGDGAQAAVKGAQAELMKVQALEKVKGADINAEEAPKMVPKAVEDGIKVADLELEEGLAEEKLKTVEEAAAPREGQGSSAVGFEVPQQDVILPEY

[8] = target: Serine/threonine-protein kinase 38-like (Homo sapiens) (UniProt Q9Y2H1); conditions: Compound concentration 1000.0 nM
Serine/threonine-protein kinase 38-like (Homo sapiens), sequence (Q9Y2H1 2-464 limits assumed): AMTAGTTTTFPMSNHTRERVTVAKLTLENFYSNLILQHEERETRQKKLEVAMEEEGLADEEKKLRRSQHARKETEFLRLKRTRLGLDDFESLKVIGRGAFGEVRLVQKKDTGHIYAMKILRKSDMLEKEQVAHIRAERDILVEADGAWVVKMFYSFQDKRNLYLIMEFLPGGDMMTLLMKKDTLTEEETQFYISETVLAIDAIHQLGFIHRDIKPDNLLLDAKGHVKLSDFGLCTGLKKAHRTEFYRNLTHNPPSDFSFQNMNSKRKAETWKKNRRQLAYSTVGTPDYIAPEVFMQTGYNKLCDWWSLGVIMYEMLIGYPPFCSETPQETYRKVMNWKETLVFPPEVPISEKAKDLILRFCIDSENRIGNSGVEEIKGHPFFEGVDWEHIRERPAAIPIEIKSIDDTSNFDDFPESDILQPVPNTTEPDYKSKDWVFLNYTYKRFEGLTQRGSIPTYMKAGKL

[9] = target: Cyclin-dependent kinase 7 (Homo sapiens) (UniProt P50613); conditions: Compound concentration 1000.0 nM
Cyclin-dependent kinase 7 (Homo sapiens), sequence (P50613 whole entry): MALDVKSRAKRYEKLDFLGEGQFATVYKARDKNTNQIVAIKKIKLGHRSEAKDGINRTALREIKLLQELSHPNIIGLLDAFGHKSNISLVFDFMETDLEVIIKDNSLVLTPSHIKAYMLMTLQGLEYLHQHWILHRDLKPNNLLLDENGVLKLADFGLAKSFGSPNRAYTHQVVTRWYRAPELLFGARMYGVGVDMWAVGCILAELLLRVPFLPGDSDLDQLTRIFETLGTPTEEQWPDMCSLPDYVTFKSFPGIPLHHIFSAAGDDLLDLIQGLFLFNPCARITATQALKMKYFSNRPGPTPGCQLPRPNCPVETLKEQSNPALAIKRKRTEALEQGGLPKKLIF

[10] = system: Tyrosine-protein kinase ABL1 (Homo sapiens), P00519 [H396P]; conditions: Compound concentration 1000.0 nM
[11] = target: Muscarinic acetylcholine receptor M3 (Homo sapiens) (UniProt P20309); conditions: Compound concentration 10.0 uM
[12] = target: Proto-oncogene tyrosine-protein kinase ROS (Homo sapiens) (UniProt P08922); conditions: Compound concentration 1000.0 nM
[13] = target: 3-phosphoinositide-dependent protein kinase 1 (Homo sapiens) (UniProt O15530); conditions: Compound concentration 1000.0 nM
[14] = target: Serine/threonine-protein kinase/endoribonuclease IRE1 (Homo sapiens) (UniProt O75460); conditions: Compound concentration 1000.0 nM
Serine/threonine-protein kinase/endoribonuclease IRE1 (Homo sapiens), sequence (O75460 19-977 limits assumed): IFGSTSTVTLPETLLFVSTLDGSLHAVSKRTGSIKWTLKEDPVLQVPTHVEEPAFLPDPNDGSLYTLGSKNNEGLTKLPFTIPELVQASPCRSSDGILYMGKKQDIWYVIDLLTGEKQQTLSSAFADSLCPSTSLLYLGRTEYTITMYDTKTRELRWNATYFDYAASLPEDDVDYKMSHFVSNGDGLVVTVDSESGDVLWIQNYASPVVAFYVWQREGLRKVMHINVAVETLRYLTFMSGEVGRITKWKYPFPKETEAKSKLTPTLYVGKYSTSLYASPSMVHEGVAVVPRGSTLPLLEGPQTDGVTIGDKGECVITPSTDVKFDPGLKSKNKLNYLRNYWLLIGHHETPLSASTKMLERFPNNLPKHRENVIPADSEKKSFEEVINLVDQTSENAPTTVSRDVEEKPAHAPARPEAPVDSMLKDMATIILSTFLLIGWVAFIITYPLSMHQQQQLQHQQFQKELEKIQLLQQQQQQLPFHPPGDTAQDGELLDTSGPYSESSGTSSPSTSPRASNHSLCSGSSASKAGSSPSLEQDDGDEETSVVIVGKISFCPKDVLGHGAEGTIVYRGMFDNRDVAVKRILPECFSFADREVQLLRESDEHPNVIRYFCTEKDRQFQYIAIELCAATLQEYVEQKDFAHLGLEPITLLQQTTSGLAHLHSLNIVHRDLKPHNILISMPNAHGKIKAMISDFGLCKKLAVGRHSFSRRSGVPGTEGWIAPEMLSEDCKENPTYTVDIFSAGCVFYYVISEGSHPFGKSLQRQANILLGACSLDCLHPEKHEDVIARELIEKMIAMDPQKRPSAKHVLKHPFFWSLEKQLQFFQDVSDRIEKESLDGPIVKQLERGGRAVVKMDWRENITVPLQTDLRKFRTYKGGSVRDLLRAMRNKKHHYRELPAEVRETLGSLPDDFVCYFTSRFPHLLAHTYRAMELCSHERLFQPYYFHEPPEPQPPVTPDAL

[15] = target: Mitogen-activated protein kinase kinase kinase 10 (Homo sapiens) (UniProt Q02779); conditions: Compound concentration 1000.0 nM
[16] = target: T2, MAP/microtubule affinity-regulating kinase 4 (Homo sapiens) (UniProt Q96L34); conditions: Compound concentration 1000.0 nM
T2 sequence (whole entry): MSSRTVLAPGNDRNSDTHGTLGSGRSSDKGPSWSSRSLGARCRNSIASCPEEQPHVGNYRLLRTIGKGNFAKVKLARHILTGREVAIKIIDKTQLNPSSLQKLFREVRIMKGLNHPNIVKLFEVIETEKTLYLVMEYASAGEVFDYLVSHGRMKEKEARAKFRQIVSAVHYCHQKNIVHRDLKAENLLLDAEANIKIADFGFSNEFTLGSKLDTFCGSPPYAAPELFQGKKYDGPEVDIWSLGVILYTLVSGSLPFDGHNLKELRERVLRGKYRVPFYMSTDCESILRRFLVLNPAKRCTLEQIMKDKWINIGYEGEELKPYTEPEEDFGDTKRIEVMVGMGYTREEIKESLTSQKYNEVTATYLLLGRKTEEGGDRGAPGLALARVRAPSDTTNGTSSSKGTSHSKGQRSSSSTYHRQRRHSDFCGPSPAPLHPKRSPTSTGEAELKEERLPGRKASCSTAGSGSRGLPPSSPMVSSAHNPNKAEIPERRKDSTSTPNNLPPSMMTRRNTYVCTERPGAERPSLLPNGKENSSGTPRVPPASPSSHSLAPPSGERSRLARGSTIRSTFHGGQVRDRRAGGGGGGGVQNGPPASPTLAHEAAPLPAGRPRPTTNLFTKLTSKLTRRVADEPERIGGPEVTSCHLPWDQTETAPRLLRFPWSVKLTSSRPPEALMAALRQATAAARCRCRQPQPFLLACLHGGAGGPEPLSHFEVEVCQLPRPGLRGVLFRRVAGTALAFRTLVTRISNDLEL

[17] = target: Serine/threonine-protein kinase NIM1 (Homo sapiens) (UniProt Q8IY84); conditions: Compound concentration 1000.0 nM
Serine/threonine-protein kinase NIM1 (Homo sapiens), sequence (Q8IY84 whole entry): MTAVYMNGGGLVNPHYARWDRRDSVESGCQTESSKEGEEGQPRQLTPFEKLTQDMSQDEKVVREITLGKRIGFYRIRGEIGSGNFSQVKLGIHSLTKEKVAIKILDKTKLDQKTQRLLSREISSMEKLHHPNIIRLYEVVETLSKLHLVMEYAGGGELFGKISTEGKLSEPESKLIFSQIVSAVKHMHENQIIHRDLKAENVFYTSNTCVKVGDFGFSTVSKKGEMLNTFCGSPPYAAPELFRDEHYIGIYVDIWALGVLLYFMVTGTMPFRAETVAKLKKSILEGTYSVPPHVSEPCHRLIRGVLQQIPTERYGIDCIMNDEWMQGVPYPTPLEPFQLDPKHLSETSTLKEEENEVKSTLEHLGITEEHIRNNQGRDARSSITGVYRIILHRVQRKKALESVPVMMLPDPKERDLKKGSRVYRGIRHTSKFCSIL

[18] = target: GABA-A receptor; anion channel (Rattus norvegicus) (UniProt O09028+P15431+P18506+P18508+P19969+P20236+P23574+P23576+P28471+P28473+P30191+P62813+P63079+P63138+Q91ZM7+Q9ES14); conditions: Compound concentration 10.0 uM
[19] = target: T3, Activin receptor type-1B (Homo sapiens) (UniProt P36896); conditions: Compound concentration 1000.0 nM
T3 sequence (whole entry): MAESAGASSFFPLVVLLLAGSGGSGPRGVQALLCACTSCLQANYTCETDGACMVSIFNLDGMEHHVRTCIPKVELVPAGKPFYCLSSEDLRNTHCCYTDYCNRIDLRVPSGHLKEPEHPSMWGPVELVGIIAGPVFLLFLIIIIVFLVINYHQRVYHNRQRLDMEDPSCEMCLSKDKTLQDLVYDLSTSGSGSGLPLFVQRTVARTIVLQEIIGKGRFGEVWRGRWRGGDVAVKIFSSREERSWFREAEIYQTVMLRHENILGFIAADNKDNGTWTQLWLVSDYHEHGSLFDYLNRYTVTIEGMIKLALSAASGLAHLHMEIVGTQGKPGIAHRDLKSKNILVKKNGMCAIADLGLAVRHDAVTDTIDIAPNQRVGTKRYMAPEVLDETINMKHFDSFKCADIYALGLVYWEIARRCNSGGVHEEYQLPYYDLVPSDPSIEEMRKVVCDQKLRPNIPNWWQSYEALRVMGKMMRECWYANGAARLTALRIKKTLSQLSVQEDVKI

[20] = system: Receptor-type tyrosine-protein kinase FLT3 (Homo sapiens), P36888 [UNDEFINED MUTATION]; conditions: Compound concentration 1000.0 nM
Receptor-type tyrosine-protein kinase FLT3 (Homo sapiens), P36888 [UNDEFINED MUTATION], sequence (P36888 whole entry, looked up, change not shown): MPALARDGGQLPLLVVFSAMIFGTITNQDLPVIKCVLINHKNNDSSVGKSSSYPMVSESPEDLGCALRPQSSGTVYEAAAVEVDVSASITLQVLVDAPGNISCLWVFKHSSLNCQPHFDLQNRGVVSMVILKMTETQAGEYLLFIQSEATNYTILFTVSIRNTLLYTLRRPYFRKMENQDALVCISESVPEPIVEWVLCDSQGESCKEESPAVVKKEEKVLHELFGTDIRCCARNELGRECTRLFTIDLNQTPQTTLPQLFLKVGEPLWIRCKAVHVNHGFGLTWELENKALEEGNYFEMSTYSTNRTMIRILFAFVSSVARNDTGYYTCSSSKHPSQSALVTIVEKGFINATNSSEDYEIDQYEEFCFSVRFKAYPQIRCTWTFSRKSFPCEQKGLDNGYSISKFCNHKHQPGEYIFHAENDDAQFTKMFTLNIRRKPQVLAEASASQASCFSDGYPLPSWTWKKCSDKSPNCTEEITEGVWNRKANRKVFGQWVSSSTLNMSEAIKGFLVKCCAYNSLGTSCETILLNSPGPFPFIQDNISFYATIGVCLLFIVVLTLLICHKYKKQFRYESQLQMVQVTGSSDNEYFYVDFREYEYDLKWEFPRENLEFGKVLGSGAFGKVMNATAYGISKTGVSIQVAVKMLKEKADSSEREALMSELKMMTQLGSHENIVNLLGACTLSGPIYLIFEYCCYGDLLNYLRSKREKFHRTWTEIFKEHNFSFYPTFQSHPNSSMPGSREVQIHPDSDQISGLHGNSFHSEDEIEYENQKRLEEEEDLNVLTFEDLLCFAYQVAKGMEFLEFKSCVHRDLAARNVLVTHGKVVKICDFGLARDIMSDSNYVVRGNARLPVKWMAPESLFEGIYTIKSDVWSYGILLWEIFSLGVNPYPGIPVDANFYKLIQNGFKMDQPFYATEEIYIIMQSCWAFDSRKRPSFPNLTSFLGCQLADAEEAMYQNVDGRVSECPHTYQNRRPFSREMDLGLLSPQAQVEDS

Mitogen-activated protein kinase 11 (Homo sapiens), sequence (Q15759 whole entry): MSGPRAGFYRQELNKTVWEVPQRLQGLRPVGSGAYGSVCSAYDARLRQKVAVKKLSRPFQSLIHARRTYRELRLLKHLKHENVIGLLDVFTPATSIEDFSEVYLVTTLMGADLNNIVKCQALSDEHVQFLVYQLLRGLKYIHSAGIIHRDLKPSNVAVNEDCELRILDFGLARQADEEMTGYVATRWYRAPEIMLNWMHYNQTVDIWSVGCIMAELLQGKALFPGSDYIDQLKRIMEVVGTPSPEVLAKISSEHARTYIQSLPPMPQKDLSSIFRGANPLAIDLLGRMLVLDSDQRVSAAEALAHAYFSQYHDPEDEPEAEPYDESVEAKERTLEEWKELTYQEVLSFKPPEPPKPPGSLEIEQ

Cc1nc(C2CCN(C(=O)c3ccc(OC(F)(F)F)cc3N)CC2)c2ncc(N3CCN(C)CC3)cc2n1 [BAY-693]
inactive: residual activity [1] 100% | residual activity [2] 100% | residual activity [3] 100% | residual activity [4] 100% | residual activity [5] 100% | residual activity [6] 94% | residual activity [7] 95% | residual activity [8] 100% | residual activity [9] 100% | residual activity [10] 78% | inhibition [11] 18.6% | residual activity [12] 92% | residual activity [13] 93% | residual activity [14] 100% | residual activity [15] 100% | residual activity [16] 100% | residual activity [17] 89% | inhibition [18] 15% | residual activity [19] 86% | residual activity [20] 86%

CN1CCN(c2cnc3c(C4CCN(C(=O)c5ccc(OC(F)(F)F)cc5N)CC4)ncnc3c2)CC1 [BAY-885]
inactive: residual activity [1] 95% | residual activity [2] 98% | residual activity [3] 100% | residual activity [4] 100% | residual activity [5] 100% | residual activity [6] 100% | residual activity [7] 94% | residual activity [8] 100% | residual activity [9] 89% | residual activity [10] 76% | inhibition [11] 27.1% | residual activity [12] 100% | residual activity [13] 85% | residual activity [14] 99% | residual activity [15] 100% | residual activity [16] 100% | residual activity [17] 100% | inhibition [18] 21.8% | residual activity [19] 79% | residual activity [20] 93%
